{"source": "ChEMBL document CHEMBL1136899", "about": "“Synthesis and therapeutic evaluation of pyridyl based novel mTOR inhibitors” (Bioorg Med Chem Lett, 2009)", "key": {"Mus musculus [1]": {"system": "Mus musculus", "assay": "Decrease in dextran sulfate sodium-induced edema in mouse at 150 mg/kg, ip administered daily for 10 days by histological analysis", "format": "functional, organism-based", "design": "dose 150 mg/kg"}, "Mus musculus [2]": {"system": "Mus musculus", "assay": "Protection against dextran sulfate sodium-induced crypt damage in mouse at 150 mg/kg, ip administered daily for 10 days by histological analysis", "format": "functional, organism-based", "design": "dose 150 mg/kg"}, "Mus musculus [3]": {"system": "Mus musculus", "assay": "Suppression of dextran sulfate sodium-induced colitis in mouse assessed as decrease in disease activity index at 150 mg/kg, ip administered daily for 10 days by macroscopic analysis", "format": "functional, organism-based", "design": "dose 150 mg/kg"}, "Mus musculus [4]": {"system": "Mus musculus", "assay": "Reversal of dextran sulfate sodium-induced shortening of colon in mouse at 150 mg/kg, ip administered daily for 10 days by macroscopic analysis", "format": "functional, organism-based", "design": "dose 150 mg/kg"}, "Plasma [5]": {"system": "Plasma", "assay": "Stability in human plasma", "format": "ADME, cell-free"}, "[6]": {"assay": "Cmax in mouse plasma at 15 mg/kg, ip", "format": "ADME, organism-based", "design": "dose 15 mg/kg, route intraperitoneal"}, "Plasma [7]": {"system": "Plasma", "assay": "Stability in mouse plasma", "format": "ADME, cell-free"}, "Mus musculus [8]": {"system": "Mus musculus", "assay": "Suppression of dextran sulfate sodium-induced colitis in mouse assessed as improved rectal bleeding index at 150 mg/kg, ip administered daily for 10 days by macroscopic analysis", "format": "functional, organism-based", "design": "dose 150 mg/kg"}, "Mus musculus [9]": {"system": "Mus musculus", "assay": "Inhibition of dextran sulfate sodium-induced weight loss in mouse at 150 mg/kg, ip administered daily for 10 days by macroscopic analysis", "format": "functional, organism-based", "design": "dose 150 mg/kg"}, "Mus musculus [10]": {"system": "Mus musculus", "assay": "Blockade of dextran sulfate sodium-induced mTOR activation in mouse at 150 mg/kg, ip administered daily for 10 days by Western blot analysis", "format": "functional, organism-based", "design": "dose 150 mg/kg"}, "PBMC": {"system": "PBMC", "assay": "Inhibition of concanavalin A-induced IFN-gamma production in human PBMC cells", "format": "functional, cell-based"}, "Mus musculus [11]": {"system": "Mus musculus", "assay": "Suppression of dextran sulfate sodium-induced colitis in mouse assessed as inhibition of leukocyte infiltration in colonic mucosa at 150 mg/kg, ip administered daily for 10 days by histological analysis", "format": "functional, organism-based", "design": "dose 150 mg/kg"}, "[12]": {"assay": "Cmax in mouse plasma at 100 mg/kg, ip", "format": "ADME, organism-based", "design": "dose 100 mg/kg, route intraperitoneal"}, "Plasma [13]": {"system": "Plasma", "assay": "Stability in rat plasma", "format": "ADME, cell-free"}}, "note": "Activity calls are given as the source filed them. The calls are words filed in the database; no cut-off is given here."}
{"compound": "CC(Cl)C(=O)Nc1ccc(C#N)nc1", "note": "(centres undefined)", "values": [{"measurement": "Activity", "setting": "Mus musculus [1]", "result": "Active"}, {"measurement": "Activity", "setting": "Mus musculus [2]", "result": "Active"}, {"measurement": "Activity", "setting": "Mus musculus [3]", "result": "Active"}, {"measurement": "Activity", "setting": "Mus musculus [4]", "result": "Active"}, {"measurement": "Stability", "setting": "Plasma [5]", "result": "Stable"}, {"measurement": "Cmax", "setting": "[6]", "result": 30, "unit": "µM"}, {"measurement": "Stability", "setting": "Plasma [7]", "result": "Stable"}, {"measurement": "Activity", "setting": "Mus musculus [8]", "result": "Active"}, {"measurement": "inhibition", "setting": "Mus musculus [9]", "result": "Active"}, {"measurement": "Activity", "setting": "Mus musculus [10]", "result": "Active"}, {"measurement": "Activity", "setting": "PBMC", "result": "Dose-dependent effect"}, {"measurement": "inhibition", "setting": "Mus musculus [11]", "result": "Active"}, {"measurement": "Cmax", "setting": "[12]", "result": 180, "unit": "µM"}, {"measurement": "Stability", "setting": "Plasma [13]", "result": "Stable"}]}
